From patent US9676756B2 (PORTOLA PHARMACEUTICALS, INC., priority 2012, dated 2017)

Columns and labels:
Format in all cases: biochemical
[1] = molecular target: T1, full length active recombinant SYK enzyme (Homo sapiens, UniProt P43405); experiment: SYK tyrosine phosphorylation activity, LANCE TR-FRET kinase assay; settings: 1 nM SYK, 100 μM ATP, 1 hour at room temperature
T1 construct: full length active recombinant SYK enzyme (Millipore, CA); purchased Millipore
Method: Potency of candidate molecules for inhibiting Syk tyrosine phosphorylation activity is assessed by measuring the ability of a test compound to inhibit Syk-mediated tyrosine phosphorylation of a Syk-specific substrate.
SYK tyrosine phosphorylation activity is measured using the LANCE™ Technology developed by Perkin Elmer Life and Analytical Sciences (Boston, Mass.). LANCE™ refers to homogeneous time resolved fluorometry applications using techniques such as time-resolved fluorescence resonance energy transfer assay (TR-FRET) (see generally for procedures in Perkin Elmer Application Note—How to Optimize a Tyrosine Kinase Assay Using Time Resolved Fluorescence-Based LANCE Detection, wwww.perkinelmer.com/lifesciences). The assay principle involves detection of a phosphorylated substrate using energy transfer from a phosphospecific europium-labeled antibody to streptavidin-allophycocyanin as an acceptor.
To test the ability of candidate molecules to inhibit SYK tyrosine phosphorylation activity, molecules are reconstituted in 30% DMSO and serially diluted 1:3 with the final dilution containing DMSO in the absence of the candidate molecule. The final DMSO concentration in the assay is 3%. Kinase assays are performed as a two part reaction. The first reaction is a kinase reaction that comprises a candidate molecule, full length active recombinant SYK enzyme (Millipore, CA) and biotin-labeled SYK-specific substrate biotin-[…]-OH. The second reaction involves termination of the kinase reaction and the simultaneous addition of the detection reagents-europium-labeled anti-phosphotyrosine reagent (Eu-W1024-PY100, Perkin Elmer, Boston, Mass.) and Streptavidin-Allophycocyanin detection reagent (SA-APC, Prozyme, CA). The kinase reaction is performed in a black U-bottom 96-well microtitre plate. The final reaction volume is 50 μL and contains a final concentration of 1 nM active SYK enzyme, 550 nM SYK-substrate, and 100 μM ATP diluted in a buffer containing 50 mM Tris pH 7.5, 5 mM MgCl2, and 1 mM DTT. The reaction is allowed to proceed for 1 hour at room temperature. The stop buffer contains 100 mM Tris pH 7.5, 300 mM NaCl2, 20 mM EDTA, 0.02% Brij35, and 0.5% BSA. The detection reagents are added to the reaction mixture at the following dilutions—1:500 for Eu-W1024-PY100 and 1:250 for SA-APC. The kinase reaction is terminated by the addition of 50 μL stop buffer containing the detection reagents. The detection is allowed to proceed for 1 hr at room temperature. Detection of the phosphorolated substrate in the absence and presence of inhibitors is measured in the TR-FRET instrument, Analyst HT (Molecular Probes, Sunnyvale, Calif.) and the condition for measurements are set up using CriterionHost Release 2.0 (Molecular Probes, Sunnyvale, Calif.). The settings used are a follows: excitation 360 nm, emission 665-7.5 nm, beam splitter 350 nm 50/50, flash 100 pulses, delay 60 us, integration 400 us, z-height 2 mm. Inhibition of SYK-tyrosine kinase activity is calculated as the maximum response observed in the presence of inhibitor, compared to that in the absence of inhibitor. IC50s are derived by non-linear regression analysis.

JAK2 = molecular target: T2, JAK2 (Homo sapiens, UniProt O60674); experiment: JAK tyrosine phosphorylation activity, Z'-LYTE FRET kinase assay; settings: catalytic domain recombinant kinase, Tyr6 peptide
T2 construct: 5 μl of catalytic domain recombinant Kinase enzyme+Tyr peptide substrate (Invitrogen, CA); purchased Invitrogen
T2 sequence (O60674 849-1124 limits assumed): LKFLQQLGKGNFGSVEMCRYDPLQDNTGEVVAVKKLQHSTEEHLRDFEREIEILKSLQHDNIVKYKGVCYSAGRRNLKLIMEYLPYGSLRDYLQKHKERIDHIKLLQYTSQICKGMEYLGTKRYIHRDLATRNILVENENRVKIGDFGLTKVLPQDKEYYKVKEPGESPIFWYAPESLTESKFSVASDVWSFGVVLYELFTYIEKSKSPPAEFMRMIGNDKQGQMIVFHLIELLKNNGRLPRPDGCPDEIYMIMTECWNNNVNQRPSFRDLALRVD
Method: (§1) JAK and SYK tyrosine phosphorylation activity is measured using the Z'-LYTE™ Technology developed by Invitrogen Corporation (Carlsbad, Calif.). For JAK1, JAK2 and JAK3 the Z'-LYTE™ Kinase Assay Kit-Tyr6 Peptide (part number PV4122) was used. The Z'-LYTE™ biochemical assay employs a fluorescence resonance energy transfer (FRET) coupled-enzyme format and is based on the differential sensitivity of phosphorylated and non-phosphorylated peptides to proteolitic cleavage. The assay uses a synthetic peptide substrate that is labelled with a donor fluorophore (coumarin) and an acceptor fluorophore (fluorescein) that make up a FRET pair. In the primary reaction (the Kinase Reaction), the kinase transfers the γ-phosphate of ATP to a single tyrosine residue on the substrate, while the presence of a kinase inhibitor in the primary reaction suppresses phosphorylation. In the secondary reaction (the Development Reaction), a site-specific protease (the Development Reagent) is added. The development buffer quenches the Kinase Reaction, while the protease recognizes and cleaves non-phosphorylated Z'-LYTE™ peptide substrate. Cleavage disrupts FRET between the donor and acceptor fluorophores on the non-phosphorylated substrate, while uncleaved, phosphorylated substrate maintains FRET.
(§2) To test the ability of candidate molecules to inhibit JAK tyrosine phosphorylation activity, molecules are reconstituted in 100% DMSO and serially diluted 1:10 in polypropylene v-bottom microtiter plates. The candidate molecules are then diluted 1:25 into kinase buffer and 2.5 μl transferred into duplicate wells of a 384 well low volume black microtiter assay plate (Corning, USA). The final DMSO concentration in the assay is 1%. The kinase reaction contains 2.5 μl of a candidate molecule, 5 μl of catalytic domain recombinant Kinase enzyme+Tyr peptide substrate (Invitrogen, CA) and 2.5 μl ATP (Invitrogen, CA). The kinase reaction is allowed to precede for 1 hour at room temperature. The protease reaction is initiated by the addition of 5 μl Development Reagent (Invitrogen, CA). After 1 hour incubation at room temperature the fluorescence is measured using a FlexStation plate reader (Molecular Devices, Sunnyvale, Calif.). The reader settings used are as follows: Fluorescence mode, endpoint, top read, excitation 400 nm, emission 445 nm and 520 nm. Auto Cutoff 435 nm and 515 nm, PMT sensitivity high, 6 reads per well. Inhibition of JAK activity is calculated as the percent phosphorylation of substrate in the presence of inhibitor compared to the percent phosphorylation of substrate in the absence of inhibitor. IC50's were derived using Xlfit 4.3 (IDBS, UK), 4 parameter logistic model 205: Y=(A+((B−A)/(1+((C/x)^D)))).

JAK1 = molecular target: T3, JAK1 (Homo sapiens, UniProt P23458); experiment: as above; settings: catalytic domain recombinant kinase, Tyr6 peptide
T3 construct: 5 μl of catalytic domain recombinant Kinase enzyme+Tyr peptide substrate (Invitrogen, CA); purchased Invitrogen
T3 sequence (P23458 875-1153 limits assumed): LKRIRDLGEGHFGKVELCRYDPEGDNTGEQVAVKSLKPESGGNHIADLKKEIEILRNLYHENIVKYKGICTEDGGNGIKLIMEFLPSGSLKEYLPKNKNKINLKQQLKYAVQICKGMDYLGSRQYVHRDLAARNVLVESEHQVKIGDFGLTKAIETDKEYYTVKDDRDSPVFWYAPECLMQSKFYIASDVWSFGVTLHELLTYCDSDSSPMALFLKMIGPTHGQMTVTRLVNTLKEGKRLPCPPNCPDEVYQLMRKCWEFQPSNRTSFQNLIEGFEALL
Method: as §1, §2

JAK3 = molecular target: T4, JAK3 (Homo sapiens, UniProt P52333); experiment: as above; settings: catalytic domain recombinant kinase, Tyr6 peptide
T4 construct: 5 μl of catalytic domain recombinant Kinase enzyme+Tyr peptide substrate (Invitrogen, CA); purchased Invitrogen
T4 sequence (P52333 822-1111 limits assumed): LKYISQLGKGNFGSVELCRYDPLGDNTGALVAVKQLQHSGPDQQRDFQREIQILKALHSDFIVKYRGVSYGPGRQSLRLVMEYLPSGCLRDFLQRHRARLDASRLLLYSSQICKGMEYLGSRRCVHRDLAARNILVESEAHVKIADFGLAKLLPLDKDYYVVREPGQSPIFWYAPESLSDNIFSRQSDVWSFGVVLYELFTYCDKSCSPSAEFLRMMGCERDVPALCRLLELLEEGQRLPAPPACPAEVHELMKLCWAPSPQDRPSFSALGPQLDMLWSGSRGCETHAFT
Method: as §1, §2

Row | SMILES | IC50 [1] | JAK2 IC50 potency class (JAK2) | JAK1 IC50 potency class (JAK1) | JAK3 IC50 potency class (JAK3)
1 | CCS(=O)(=O)N1CCC(c2ccc(Nc3ncc(C(N)=O)c(NC4CC4)n3)cc2)CC1 [Compound 1, 4-(cyclopropylamino)-2-((4-(1-(ethylsulfonyl)piperidin-4-yl)phenyl)amino)pyrimidine-5-carboxamide] | +++ (0.10 uM<IC50<0.01 uM) | ++++ (0.01 uM<IC50<0.001 uM) | +++ (0.10 uM<IC50<0.01 uM) | ++++ (0.01 uM<IC50<0.001 uM)
2 | NC(=O)c1cnc(Nc2ccc(C3CCN(S(=O)(=O)C4CC4)CC3)cc2)nc1NC1CC1 [Compound 2, 4-(cyclopropylamino)-2-((4-(1-(cyclopropylsulfonyl)piperidin-4-yl)phenyl)amino)pyrimidine-5-carboxamide] | +++ (0.10 uM<IC50<0.01 uM) | ++++ (0.01 uM<IC50<0.001 uM) | +++ (0.10 uM<IC50<0.01 uM) | ++++ (0.01 uM<IC50<0.001 uM)
3 | CC(C)S(=O)(=O)N1CCC(c2ccc(Nc3ncc(C(N)=O)c(NC4CC4)n3)cc2)CC1 [Compound 3, 4-(cyclopropylamino)-2-((4-(1-(isopropylsulfonyl)piperidin-4-yl)phenyl)amino)pyrimidine-5-carboxamide] | +++ (0.10 uM<IC50<0.01 uM) | ++++ (0.01 uM<IC50<0.001 uM) | +++ (0.10 uM<IC50<0.01 uM) | ++++ (0.01 uM<IC50<0.001 uM)
4 | CC(C)N1CCC(c2ccc(Nc3ncc(C(N)=O)c(NC4CC4)n3)cc2)CC1 [Compound 4, 4-(cyclopropylamino)-2-((4-(1-isopropylpiperidin-4-yl)phenyl)amino)pyrimidine-5-carboxamide] | +++ (0.10 uM<IC50<0.01 uM) | +++ (0.10 uM<IC50<0.01 uM) | +++ (0.10 uM<IC50<0.01 uM) | ++++ (0.01 uM<IC50<0.001 uM)
5 | CN(C)C(=O)N1CCC(c2ccc(Nc3ncc(C(N)=O)c(NC4CC4)n3)cc2)CC1 [Compound 5, 4-(cyclopropylamino)-2-((4-(1-(dimethylcarbamoyl)piperidin-4-yl)phenyl)amino)pyrimidine-5-carboxamide] | +++ (0.10 uM<IC50<0.01 uM) | ++++ (0.01 uM<IC50<0.001 uM) | +++ (0.10 uM<IC50<0.01 uM) | ++++ (0.01 uM<IC50<0.001 uM)
6 | NC(=O)c1cnc(Nc2ccc(C3CCN(C(=O)N4CCOCC4)CC3)cc2)nc1NC1CC1 [Compound 6, 4-(cyclopropylamino)-2-((4-(1-(morpholine-4-carbonyl)piperidin-4-yl)phenyl)amino)pyrimidine-5-carboxamide] | +++ (0.10 uM<IC50<0.01 uM) | ++++ (0.01 uM<IC50<0.001 uM) | +++ (0.10 uM<IC50<0.01 uM) | ++++ (0.01 uM<IC50<0.001 uM)
7 | CCC(=O)N1CCC(c2ccc(Nc3ncc(C(N)=O)c(NC4CC4)n3)cc2)CC1 [Compound 7, 4-(cyclopropylamino)-2-((4-(1-propionylpiperidin-4-yl)phenyl)amino)pyrimidine-5-carboxamide] | +++ (0.10 uM<IC50<0.01 uM) | ++++ (0.01 uM<IC50<0.001 uM) | +++ (0.10 uM<IC50<0.01 uM) | ++++ (0.01 uM<IC50<0.001 uM)
8 | CC(=O)N1CC(c2ccc(Nc3ncc(C(N)=O)c(NC4CC4)n3)cc2)C1 [Compound 71, 2-(4-(1-acetylazetidin-3-yl)phenylamino)-4-(cyclopropylamino)pyrimidine-5-carboxamide] | +++ (0.10 uM<IC50<0.01 uM) | – | – | –
9 | COCC(=O)N1CC(c2ccc(Nc3ncc(C(N)=O)c(NC4CC4)n3)cc2)C1 [Compound 72, 4-(cyclopropylamino)-2-(4-(1-(2-methoxyacetyl)azetidin-3-yl)phenylamino)pyrimidine-5-carboxamide] | +++ (0.10 uM<IC50<0.01 uM) | – | – | –
10 | CS(=O)(=O)N1CC(c2ccc(Nc3ncc(C(N)=O)c(NC4CC4)n3)cc2)C1 [Compound 73, 4-(cyclopropylamino)-2-(4-(1-(methylsulfonyl)azetidin-3-yl)phenylamino)pyrimidine-5-carboxamide] | +++ (0.10 uM<IC50<0.01 uM) | – | – | –
11 | CN(C)S(=O)(=O)N1CC(c2ccc(Nc3ncc(C(N)=O)c(NC4CC4)n3)cc2)C1 [Compound 74, 4-(cyclopropylamino)-2-(4-(1-(N,N-dimethylsulfamoyl)azetidin-3-yl)phenylamino)pyrimidine-5-carboxamide] | +++ (0.10 uM<IC50<0.01 uM) | – | – | –
12 | CCS(=O)(=O)N1CC(c2ccc(Nc3ncc(C(N)=O)c(NC4CC4)n3)cc2)C1 [Compound 75, 4-(cyclopropylamino)-2-(4-(1-(ethylsulfonyl)azetidin-3-yl)phenylamino)pyrimidine-5-carboxamide] | +++ (0.10 uM<IC50<0.01 uM) | – | – | –
13 | CN(C)C(=O)C1CN(c2ccc(Nc3ncc(C(N)=O)c(NC4CC4)n3)cc2)C1 [Compound 76, 4-(cyclopropylamino)-2-(4-(3-(dimethylcarbamoyl)azetidin-1-yl)phenylamino)pyrimidine-5-carboxamide] | ++ (1.0 uM<IC50<0.10 uM) | – | – | –
14 | CN(C)C(=O)C1CN(c2ccc(Nc3ncc(C(N)=O)c(NC4CC4)n3)cc2F)C1 [Compound 77, 4-(cyclopropylamino)-2-(4-(3-(dimethylcarbamoyl)azetidin-1-yl)-3-fluorophenylamino)pyrimidine-5-carboxamide] | ++ (1.0 uM<IC50<0.10 uM) | – | – | –
